Test results taken from patent publication US11780893B2, “Kv1.3 blockers” (Zealand Pharma A/S, priority 2019, dated 2023).
Bridge positions count the residues as written; N and C are the ends. Square brackets hold non-standard residues; d marks the D form. Peptide text beside a SMILES is read from it. Nle = CCCC[C@H](N)C(=O)O

Biological target: T1, human Kv1.3 voltage-gated K+ channel (Homo sapiens, UniProt P22001)
T1 construct: host or cells: CHO-DUKX
Assay: cell-based
Conditions: inhibition of thallium flux, CHO-DUKX cells with human Kv1.3; read-out: IC50

T1 sequence (P22001 whole entry): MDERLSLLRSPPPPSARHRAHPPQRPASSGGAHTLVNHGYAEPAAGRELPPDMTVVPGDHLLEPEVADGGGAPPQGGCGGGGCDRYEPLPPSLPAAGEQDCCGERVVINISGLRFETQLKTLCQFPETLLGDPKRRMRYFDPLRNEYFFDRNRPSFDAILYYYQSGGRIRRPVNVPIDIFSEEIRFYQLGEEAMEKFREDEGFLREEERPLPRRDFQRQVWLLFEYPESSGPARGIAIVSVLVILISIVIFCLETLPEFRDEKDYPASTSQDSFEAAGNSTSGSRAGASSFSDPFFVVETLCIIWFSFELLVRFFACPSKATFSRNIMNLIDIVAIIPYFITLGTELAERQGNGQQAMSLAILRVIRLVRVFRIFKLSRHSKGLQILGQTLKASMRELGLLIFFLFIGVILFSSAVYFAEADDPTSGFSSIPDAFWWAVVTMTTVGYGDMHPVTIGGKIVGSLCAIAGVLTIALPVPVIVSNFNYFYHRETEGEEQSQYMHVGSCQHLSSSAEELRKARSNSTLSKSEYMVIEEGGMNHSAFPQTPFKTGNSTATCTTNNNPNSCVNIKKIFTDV

Compound | IC50 [nM]
CC[C@H](C)[C@@H]1NC(=O)[C@H](C)NC(=O)[C@H](CCCCN)NC(=O)[C@H](CC(C)C)NC(=O)[C@@H]2CSSC[C@@H](C(=O)N[C@@H](Cc3ccc(O)cc3)C(=O)N3CCC[C@H]3C(=O)N[C@@H](CCCNC(=N)N)C(=O)O)NC(=O)[C@H](CCCCN)NC(=O)[C@@H]3CSSC[C@H](NC(=O)[C@H](CCC(=O)O)NC(=O)[C@H](C(C)C)NC(=O)[C@H](CO)NC(=O)[C@H](C)NC(=O)[C@H](CO)NC(=O)[C@@H](NC(=O)[C@H](CCCNC(=N)N)NC(=O)[C@H](CCSC)NC(=O)[C@H](CC(=O)O)NC(=O)[C@H](CCSC)NC(=O)[C@@H](N)CC(N)=O)CSSC[C@H](NC(=O)[C@H](CCCCN)NC(=O)CNC(=O)[C@H](Cc4ccccc4)NC(=O)CNC(=O)[C@H](CCCNC(=N)N)NC(=O)CNC1=O)C(=O)N[C@@H](CCSC)C(=O)N[C@@H](CC(N)=O)C(=O)N[C@@H](CCCCN)C(=O)N[C@@H](CCCCN)C(=O)N3)C(=O)N[C@@H](CCCCN)C(=O)N[C@@H](CCC(N)=O)C(=O)N[C@@H](CCCCN)C(=O)N2 [Compound 4] (H-NMDMRCSASVECKQKCLKAIGRGFGKCMNKKCKCYPR-OH; disulfide 6-27, 12-32, 16-34) | 0.29
CCCC[C@H](NC(=O)[C@@H]1CCCN1)C(=O)N[C@@H](CCC(=O)O)C(=O)N[C@@H](CCCC)C(=O)N[C@@H](CCCNC(=N)N)C(=O)N[C@H]1CSSC[C@@H]2NC(=O)[C@H](CCCCN)NC(=O)CNC(=O)[C@H](Cc3ccccc3)NC(=O)[C@H]([C@@H](C)CC)NC(=O)[C@H](CO)NC(=O)CNC(=O)[C@H]([C@@H](C)CC)NC(=O)[C@H](C)NC(=O)[C@H](C)NC(=O)[C@H](CC(C)C)NC(=O)[C@@H]3CSSC[C@@H](C(=O)N[C@@H](Cc4ccc(O)cc4)C(=O)N4CCC[C@H]4C(=O)N[C@@H](CCCNC(=N)N)C(=O)O)NC(=O)[C@H](CCCCN)NC(=O)[C@H](CSSC[C@H](NC(=O)[C@H](CCC(=O)O)NC(=O)[C@H](C(C)C)NC(=O)[C@H](CO)NC(=O)[C@H](CO)NC(=O)[C@H](CO)NC1=O)C(=O)N[C@@H](CCCCN)C(=O)N[C@@H](CCC(N)=O)C(=O)N[C@@H](CCCCN)C(=O)N3)NC(=O)[C@H](CCCCN)NC(=O)[C@H](CCCCN)NC(=O)[C@H](CC(N)=O)NC(=O)[C@H](CCCC)NC2=O [Compound 135] (H-P[Nle]E[Nle]RCSSSVECKQKCLAAIGSIFGKC[Nle]NKKCKCYPR-OH; disulfide 6-27, 12-32, 16-34) | 0.336
CCCC[C@H](NC(=O)[C@@H]1CCCN1)C(=O)N[C@@H](CCC(=O)O)C(=O)N[C@@H](CCCC)C(=O)N[C@@H](CCCNC(=N)N)C(=O)N[C@H]1CSSC[C@@H]2NC(=O)[C@H](CCCCN)NC(=O)CNC(=O)[C@H](Cc3ccccc3)NC(=O)[C@H]([C@@H](C)CC)NC(=O)[C@H](CO)NC(=O)CNC(=O)[C@H]([C@@H](C)CC)NC(=O)[C@H](C)NC(=O)[C@H](C)NC(=O)[C@H](CC(C)C)NC(=O)[C@@H]3CSSC[C@@H](C(=O)N[C@@H](Cc4ccc(O)cc4)C(=O)N4CCC[C@H]4C(=O)N[C@@H](CCCNC(=N)N)C(=O)O)NC(=O)[C@H](CCCCN)NC(=O)[C@H](CSSC[C@H](NC(=O)[C@H](CCC(=O)O)NC(=O)[C@H](CCC(N)=O)NC(=O)[C@H](CO)NC(=O)[C@H](C)NC(=O)[C@H](CO)NC1=O)C(=O)N[C@@H](CCCCN)C(=O)N[C@@H](CCC(N)=O)C(=O)N[C@@H](CCCCN)C(=O)N3)NC(=O)[C@H](CCCCN)NC(=O)[C@H](CCCCN)NC(=O)[C@H](CC(N)=O)NC(=O)[C@H](CCCC)NC2=O [Compound 139] (H-P[Nle]E[Nle]RCSASQECKQKCLAAIGSIFGKC[Nle]NKKCKCYPR-OH; disulfide 6-27, 12-32, 16-34) | 0.453
CCCC[C@H](NC(=O)[C@@H]1CCCN1)C(=O)N[C@@H](CCC(=O)O)C(=O)N[C@@H](CCCC)C(=O)N[C@@H](CCCNC(=N)N)C(=O)N[C@H]1CSSC[C@@H]2NC(=O)[C@H](CCCCN)NC(=O)CNC(=O)[C@H](Cc3ccccc3)NC(=O)[C@H]([C@@H](C)CC)NC(=O)[C@H](CO)NC(=O)CNC(=O)[C@H]([C@@H](C)CC)NC(=O)[C@H](C)NC(=O)[C@H](C)NC(=O)[C@H](CC(C)C)NC(=O)[C@@H]3CSSC[C@@H](C(=O)N[C@@H](Cc4ccc(O)cc4)C(=O)N4CCC[C@H]4C(=O)N[C@@H](CCCNC(=N)N)C(=O)O)NC(=O)[C@H](CCCCN)NC(=O)[C@H](CSSC[C@H](NC(=O)[C@H](CCC(=O)O)NC(=O)[C@@H]4CCCN4C(=O)[C@H](CO)NC(=O)[C@H](C)NC(=O)[C@H](CO)NC1=O)C(=O)N[C@@H](CCCCN)C(=O)N[C@@H](CCC(N)=O)C(=O)N[C@@H](CCCCN)C(=O)N3)NC(=O)[C@H](CCCCN)NC(=O)[C@H](CCCCN)NC(=O)[C@H](CC(N)=O)NC(=O)[C@H](CCCC)NC2=O [Compound 138] (H-P[Nle]E[Nle]RCSASPECKQKCLAAIGSIFGKC[Nle]NKKCKCYPR-OH; disulfide 6-27, 12-32, 16-34) | 0.228
CCCC[C@H](NC(=O)[C@@H]1CCCN1)C(=O)N[C@@H](CCC(=O)O)C(=O)N[C@@H](CCCC)C(=O)N[C@@H](CCCNC(=N)N)C(=O)N[C@H]1CSSC[C@@H]2NC(=O)[C@H](CCCCN)NC(=O)CNC(=O)[C@H](Cc3ccccc3)NC(=O)[C@H]([C@@H](C)CC)NC(=O)[C@H](CO)NC(=O)CNC(=O)[C@H]([C@@H](C)CC)NC(=O)[C@H](C)NC(=O)[C@H](C)NC(=O)[C@H](CC(C)C)NC(=O)[C@@H]3CSSC[C@@H](C(=O)N[C@@H](Cc4ccc(O)cc4)C(=O)N[C@@H](CCCNC(=N)N)C(=O)O)NC(=O)[C@H](CCCCN)NC(=O)[C@H](CSSC[C@H](NC(=O)[C@H](CCC(=O)O)NC(=O)[C@H](C(C)C)NC(=O)[C@H](CO)NC(=O)[C@H](C)NC(=O)[C@H](CO)NC1=O)C(=O)N[C@@H](CCCCN)C(=O)N[C@@H](CCC(N)=O)C(=O)N[C@@H](CCCCN)C(=O)N3)NC(=O)[C@H](CCCCN)NC(=O)[C@H](CCCCN)NC(=O)[C@H](CC(N)=O)NC(=O)[C@H](CCCC)NC2=O [Compound 120] (H-P[Nle]E[Nle]RCSASVECKQKCLAAIGSIFGKC[Nle]NKKCKCYR-OH; disulfide 6-27, 12-32, 16-34) | 0.894
CCCC[C@H](NC(=O)[C@@H]1CCCN1)C(=O)N[C@@H](CCC(=O)O)C(=O)N[C@@H](CCCC)C(=O)N[C@@H](CCCNC(=N)N)C(=O)N[C@H]1CSSC[C@@H]2NC(=O)[C@H](CCCCN)NC(=O)CNC(=O)[C@H](Cc3ccccc3)NC(=O)[C@H]([C@@H](C)CC)NC(=O)[C@H](CO)NC(=O)CNC(=O)[C@H]([C@@H](C)CC)NC(=O)[C@H](C)NC(=O)[C@H](C)NC(=O)[C@H](CC(C)C)NC(=O)[C@@H]3CSSC[C@@H](C(=O)N[C@@H](Cc4ccc(O)cc4)C(=O)N4CCC[C@H]4C(=O)N[C@@H](CCCNC(=N)N)C(=O)O)NC(=O)[C@H](CCCCN)NC(=O)[C@H](CSSC[C@H](NC(=O)[C@H](CCC(=O)O)NC(=O)[C@H](C(C)C)NC(=O)[C@H](CO)NC(=O)[C@H](C)NC(=O)[C@H](CO)NC1=O)C(=O)N[C@@H](CC(C)C)C(=O)N[C@@H](CCC(N)=O)C(=O)N[C@@H](CCCCN)C(=O)N3)NC(=O)[C@H](CCCCN)NC(=O)[C@H](CCCCN)NC(=O)[C@H](CC(N)=O)NC(=O)[C@H](CCCC)NC2=O [Compound 140] (H-P[Nle]E[Nle]RCSASVECLQKCLAAIGSIFGKC[Nle]NKKCKCYPR-OH; disulfide 6-27, 12-32, 16-34) | 3.57
CCCC[C@H](NC(=O)[C@@H]1CCCN1)C(=O)N[C@@H](CCC(=O)O)C(=O)N[C@@H](CCCC)C(=O)N[C@@H](CCCNC(=N)N)C(=O)N[C@H]1CSSC[C@@H]2NC(=O)[C@H](CCCCN)NC(=O)CNC(=O)[C@H](Cc3ccccc3)NC(=O)[C@H]([C@@H](C)CC)NC(=O)[C@H](CO)NC(=O)CNC(=O)[C@H]([C@@H](C)CC)NC(=O)[C@H](C)NC(=O)[C@H](C)NC(=O)[C@H](CC(C)C)NC(=O)[C@@H]3CSSC[C@@H](C(=O)N[C@@H](Cc4ccc(O)cc4)C(=O)N4CCC[C@H]4C(=O)N[C@@H](CCCNC(=N)N)C(=O)N[C@@H](Cc4c[nH]cn4)C(=O)N[C@@H](CCCNC(=N)N)C(=O)O)NC(=O)[C@H](CCCCN)NC(=O)[C@H](CSSC[C@H](NC(=O)[C@H](CCC(=O)O)NC(=O)[C@H](C(C)C)NC(=O)[C@H](CO)NC(=O)[C@H](C)NC(=O)[C@H](CO)NC1=O)C(=O)N[C@@H](CCCCN)C(=O)N[C@@H](CCC(N)=O)C(=O)N[C@@H](CCCCN)C(=O)N3)NC(=O)[C@H](CCCCN)NC(=O)[C@H](CCCCN)NC(=O)[C@H](CC(N)=O)NC(=O)[C@H](CCCC)NC2=O [Compound 129] (H-P[Nle]E[Nle]RCSASVECKQKCLAAIGSIFGKC[Nle]NKKCKCYPRHR-OH; disulfide 6-27, 12-32, 16-34) | 0.143
H-NMDMRCSASVECKQKCLKAIGSIFGKCMNKKCKCYPRHRRK-NH2 (disulfide 6-27, 12-32, 16-34) [Compound 24] | 0.073
CCCC[C@H](NC(=O)[C@@H]1CCCN1)C(=O)N[C@@H](CCC(=O)O)C(=O)N[C@@H](CCCC)C(=O)N[C@@H](CCCNC(=N)N)C(=O)N[C@H]1CSSC[C@@H]2NC(=O)[C@H](CCCCN)NC(=O)CNC(=O)[C@H](Cc3ccccc3)NC(=O)[C@H]([C@@H](C)CC)NC(=O)[C@H](CO)NC(=O)CNC(=O)[C@H]([C@@H](C)CC)NC(=O)[C@H](C)NC(=O)[C@H](C)NC(=O)[C@H](CC(C)C)NC(=O)[C@@H]3CSSC[C@@H](C(=O)N[C@@H](Cc4ccc(O)cc4)C(=O)N4CCC[C@H]4C(=O)N[C@@H](CCCNC(=N)N)C(=O)O)NC(=O)[C@H](CCCCN)NC(=O)[C@H](CSSC[C@H](NC(=O)[C@H](CCC(=O)O)NC(=O)[C@H](C(C)C)NC(=O)[C@@H]4CCCN4C(=O)[C@H](C)NC(=O)[C@H](CO)NC1=O)C(=O)N[C@@H](CCCCN)C(=O)N[C@@H](CCC(N)=O)C(=O)N[C@@H](CCCCN)C(=O)N3)NC(=O)[C@H](CCCCN)NC(=O)[C@H](CCCCN)NC(=O)[C@H](CC(N)=O)NC(=O)[C@H](CCCC)NC2=O [Compound 137] (H-P[Nle]E[Nle]RCSAPVECKQKCLAAIGSIFGKC[Nle]NKKCKCYPR-OH; disulfide 6-27, 12-32, 16-34) | 0.333
